{"source": "paper PMC13070491", "about": "“Single-nucleus transcriptomics, pharmacokinetics, and pharmacodynamics of CDK4/6 and mTOR inhibition in a Phase 0/1 trial of recurrent high-grade glioma” (Neuro-Oncology, 2025)", "system": "GB126, GB239 and GB86 patient-derived cell lines", "test": "In vitro single-cell RNA sequencing, analyses across the cell lines (pseudobulk differential gene expression, GSEA, non-cycling cells)", "assay_type": "cell-based, human", "procedure": "Patient-derived glioma stem cell lines (GSCs; GB126, GB86, and GB239) were established from resected GBM tumor tissue. Cell lines were genetically profiled for mutations and copy number aberrations using the IvySeq custom gene panel. […] GB239 was derived from a tumor sample included in this Phase 0 trial (tumor sample: 100-0039). All human GSCs were cultured as described previously.[12]\nFollowing the fifth day of drug exposure, cells were harvested, cryopreserved to be processed at a later point, or immediately processed for single-cell RNA sequencing (10x Genomics, 3’ version 3). The single-cell RNA sequencing data were then processed via cellranger count and Seurat. Briefly, cells were filtered out based on the following criteria: minimum number of genes detected >500 and <10 000 with a maximum percentage of mitochondrial genes set to 10%. Statistical assessment was made between the malignant proportions of each cell state using a 2-sided paired t-test.\nDescriptive statistics of the clinical data are included in Table 1. Comparisons between groups were conducted using a 2-sided or paired 2-sided t-test, where indicated. P < .05 was considered significant. Multiple hypothesis test corrections (ie, false discovery rate correction) were applied for snRNAseq pseudobulk differential expression analysis."}
{"smiles": "CN(C)C(=O)c1cc2cnc(Nc3ccc(N4CCNCC4)cn3)nc2n1C1CCCC1", "note": "[Ribociclib, ribociclib]", "values": [{"measurement": "CDK4 gene expression following ribociclib treatment", "setting": "5 days vs DMSO, single-cell RNAseq", "value": "reduced but remained high"}, {"measurement": "NPC-like proportion, cells not actively cycling", "setting": "ribociclib vs DMSO 5 days, paired t-test P = 1.4E-06", "value": "decrease"}, {"measurement": "AC-like proportion, cells not actively cycling", "setting": "ribociclib vs DMSO 5 days, paired t-test P = 2.6E-03", "value": "increase"}]}
